According to US8426437B2, “Pyrroloquinoline derivatives and their use as protein kinases inhibitors” (Pierre Fabre Medicament, priority 2005, dated 2013):
pIC50: −log10 of the molar value. Where a name gives a salt, the structure may show the parent alone.

Tests used:
Format in all cases: biochemical
[1] = biological target: ALK (Homo sapiens, UniProt Q9UM73); assay: Inhibition of kinase ALK (PLCγ1-GST substrate, anti-phosphotyrosine ELISA); details: ALK 180 ng/ml, 250 μM ATP, 30 minutes at 30° C.
ALK, sequence (Q9UM73 19-1620, species assumed): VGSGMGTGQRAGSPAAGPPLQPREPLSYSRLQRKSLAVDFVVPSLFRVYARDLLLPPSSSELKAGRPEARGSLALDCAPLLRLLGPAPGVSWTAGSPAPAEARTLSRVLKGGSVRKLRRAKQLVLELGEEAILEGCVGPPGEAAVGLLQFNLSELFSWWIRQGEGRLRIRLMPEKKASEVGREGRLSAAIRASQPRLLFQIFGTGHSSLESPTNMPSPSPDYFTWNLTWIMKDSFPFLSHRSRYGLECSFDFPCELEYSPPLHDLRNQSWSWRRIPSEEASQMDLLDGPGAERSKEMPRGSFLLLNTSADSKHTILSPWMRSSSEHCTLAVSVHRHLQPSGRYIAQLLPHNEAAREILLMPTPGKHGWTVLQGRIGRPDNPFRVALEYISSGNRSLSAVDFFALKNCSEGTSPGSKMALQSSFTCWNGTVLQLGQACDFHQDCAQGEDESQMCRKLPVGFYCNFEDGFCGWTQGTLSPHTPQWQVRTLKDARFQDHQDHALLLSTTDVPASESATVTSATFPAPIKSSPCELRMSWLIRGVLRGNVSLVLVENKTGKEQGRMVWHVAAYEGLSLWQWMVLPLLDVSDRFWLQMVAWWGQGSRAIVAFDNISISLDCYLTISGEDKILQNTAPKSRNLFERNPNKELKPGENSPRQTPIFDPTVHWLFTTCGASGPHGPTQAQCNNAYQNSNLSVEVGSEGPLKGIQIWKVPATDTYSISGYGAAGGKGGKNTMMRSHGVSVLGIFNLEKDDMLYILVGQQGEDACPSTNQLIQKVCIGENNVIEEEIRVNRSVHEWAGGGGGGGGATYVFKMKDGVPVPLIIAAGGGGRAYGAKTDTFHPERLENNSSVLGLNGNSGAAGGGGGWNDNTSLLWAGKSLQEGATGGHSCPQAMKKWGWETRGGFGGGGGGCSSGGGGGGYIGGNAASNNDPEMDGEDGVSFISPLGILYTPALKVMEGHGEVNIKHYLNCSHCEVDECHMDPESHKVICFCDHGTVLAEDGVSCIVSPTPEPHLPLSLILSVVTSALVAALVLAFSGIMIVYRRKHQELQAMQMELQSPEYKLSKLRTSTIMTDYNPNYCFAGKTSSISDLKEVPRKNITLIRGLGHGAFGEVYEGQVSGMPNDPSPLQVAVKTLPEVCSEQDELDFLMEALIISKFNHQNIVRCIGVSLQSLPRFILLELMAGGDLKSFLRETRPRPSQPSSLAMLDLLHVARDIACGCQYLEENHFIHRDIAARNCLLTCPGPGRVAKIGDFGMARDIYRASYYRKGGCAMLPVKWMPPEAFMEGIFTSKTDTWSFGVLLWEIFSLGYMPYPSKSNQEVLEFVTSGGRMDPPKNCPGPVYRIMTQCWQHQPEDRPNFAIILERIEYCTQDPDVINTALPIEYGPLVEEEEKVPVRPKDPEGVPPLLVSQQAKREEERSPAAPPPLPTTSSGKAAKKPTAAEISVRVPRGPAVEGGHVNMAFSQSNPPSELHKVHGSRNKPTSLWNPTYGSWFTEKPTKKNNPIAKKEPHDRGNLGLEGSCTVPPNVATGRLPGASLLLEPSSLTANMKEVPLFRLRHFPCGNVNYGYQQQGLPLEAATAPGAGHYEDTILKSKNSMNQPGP
Procedure: Incubation is carried out for 30 minutes at 30° C. with agitation.
The signal is read in luminescent mode using a luminometer.

[2] = biological target: T1, RET (Homo sapiens, UniProt P07949); assay: Inhibition of RET kinase activity, recombinant RET method (Kinase-Glo); details: RET 2 μg/ml, poly-EY4 substrate, 20 μM ATP, two hours at 30° C.
T1 construct: purchased Upstate 14-570MG
T1 sequence (P07949 29-1114): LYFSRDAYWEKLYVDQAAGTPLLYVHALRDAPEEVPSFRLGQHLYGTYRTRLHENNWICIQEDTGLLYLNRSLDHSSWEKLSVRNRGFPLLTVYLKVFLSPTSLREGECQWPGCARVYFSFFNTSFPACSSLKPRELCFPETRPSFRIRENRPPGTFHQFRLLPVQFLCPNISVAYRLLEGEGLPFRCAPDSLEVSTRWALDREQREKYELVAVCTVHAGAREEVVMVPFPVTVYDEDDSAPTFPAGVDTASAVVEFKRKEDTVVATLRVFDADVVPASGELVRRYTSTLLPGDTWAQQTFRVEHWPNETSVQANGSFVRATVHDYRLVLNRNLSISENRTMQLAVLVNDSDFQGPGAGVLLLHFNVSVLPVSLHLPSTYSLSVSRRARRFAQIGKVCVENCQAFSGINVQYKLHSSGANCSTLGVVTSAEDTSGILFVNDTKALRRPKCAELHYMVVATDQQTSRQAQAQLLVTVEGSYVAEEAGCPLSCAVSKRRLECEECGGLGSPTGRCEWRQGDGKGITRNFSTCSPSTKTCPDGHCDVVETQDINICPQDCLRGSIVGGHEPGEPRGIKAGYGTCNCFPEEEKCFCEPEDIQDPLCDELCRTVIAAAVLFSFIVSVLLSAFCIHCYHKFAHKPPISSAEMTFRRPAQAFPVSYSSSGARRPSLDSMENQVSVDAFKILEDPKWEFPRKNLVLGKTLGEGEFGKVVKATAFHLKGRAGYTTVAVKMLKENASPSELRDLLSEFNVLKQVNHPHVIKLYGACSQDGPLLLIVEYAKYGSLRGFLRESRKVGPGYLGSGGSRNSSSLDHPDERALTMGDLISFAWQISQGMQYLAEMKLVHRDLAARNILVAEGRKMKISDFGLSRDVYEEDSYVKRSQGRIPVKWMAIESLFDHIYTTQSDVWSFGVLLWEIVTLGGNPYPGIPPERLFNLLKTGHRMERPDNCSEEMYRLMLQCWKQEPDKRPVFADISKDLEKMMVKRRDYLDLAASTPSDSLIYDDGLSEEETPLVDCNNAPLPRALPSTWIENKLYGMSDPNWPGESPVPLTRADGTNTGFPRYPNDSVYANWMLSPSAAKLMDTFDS
How it was run: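 Recombinant RET at 2 μg/ml in 20 mM MOPS/NaOH pH 7.0, 1 mM EDTA, 5% glycerol, 0.01% Brij35, 0.1% 2-mercaptoethanol, 1 mg/ml BSA; compounds 10 nM–30 μM final.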

[3] = biological target: T2, TrkB (Homo sapiens, UniProt Q16620); assay: Inhibition of kinase TrkB (Kinase-Glo); details: TrkB 4 μg/ml, 40 μM ATP, two hours at 30° C.
T2 construct: purchased Upstate 14-507
T2 sequence (Q16620 32-822): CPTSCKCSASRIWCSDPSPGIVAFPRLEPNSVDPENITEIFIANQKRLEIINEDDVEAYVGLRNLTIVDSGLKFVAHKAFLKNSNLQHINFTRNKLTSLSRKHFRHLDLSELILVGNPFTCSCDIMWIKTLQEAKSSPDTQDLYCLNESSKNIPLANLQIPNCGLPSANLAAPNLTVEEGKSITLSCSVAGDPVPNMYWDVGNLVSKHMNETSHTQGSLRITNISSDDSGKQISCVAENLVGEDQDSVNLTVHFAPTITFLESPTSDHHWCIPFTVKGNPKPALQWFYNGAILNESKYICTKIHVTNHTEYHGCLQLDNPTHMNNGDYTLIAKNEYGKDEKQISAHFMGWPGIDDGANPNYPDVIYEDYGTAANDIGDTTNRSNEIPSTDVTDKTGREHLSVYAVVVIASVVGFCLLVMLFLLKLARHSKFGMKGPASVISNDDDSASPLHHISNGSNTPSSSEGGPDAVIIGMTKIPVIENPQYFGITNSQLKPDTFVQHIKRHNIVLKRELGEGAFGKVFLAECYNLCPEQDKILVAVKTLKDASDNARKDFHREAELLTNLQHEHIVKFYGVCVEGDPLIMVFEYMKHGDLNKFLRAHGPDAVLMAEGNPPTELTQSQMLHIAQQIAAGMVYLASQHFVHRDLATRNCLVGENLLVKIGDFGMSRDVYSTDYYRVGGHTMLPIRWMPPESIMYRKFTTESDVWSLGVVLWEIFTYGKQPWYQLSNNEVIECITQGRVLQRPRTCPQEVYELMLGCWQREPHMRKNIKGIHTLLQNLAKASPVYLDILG
Procedure: Protein TrkB (Upstate 14-507; batch #25578U) is incubated at a concentration of 4 μg/ml in a buffer containing 8 mM of MOPS/NaOH pH7, 0.2 mM EDTA, 40 mM MgAc (Sigma #229768), 1 mM DTT (Fluka #43816), NaOV 1 mM, 25 mM 2-glycerolphosphate (Sigma #G9891), in the presence of 2.5 mg/ml of peptide substrate poly-EY (Upstate #P0275), and 40 μM of ATP.
The dilution buffer for TrkB is as follows: 20 mM MOPS/NaOH pH7, 1 mM EDTA, 5% glycerol, 0.01% Brij35, 0.1% 2-mercapto, 1 mg/ml BSA.
(§1) The compound to be tested is first added to the enzyme to give a reaction volume of 50 μl. The dilution of the compounds of the invention is distributed so as to obtain a scale of final concentrations between 10 nM and 30 μM.
(§2) After incubation of the reaction mixture for two hours at 30° C., the level of ATP that remains is assayed using the Kinase-Glo Luminescent Kinase Assay (Promega #V6712) according to the conditions recommended by the supplier. The luminescence induced is read in a plate reader (Envision-Perkin Elmer).

[4] = biological target: T3, PIM-1 (Homo sapiens, UniProt P11309); assay: Inhibition of kinase PIM-1 (Kinase-Glo); details: PIM-1 0.625 μg/ml, 10 μM ATP, forty minutes at 30° C.
T3 construct: purchased Upstate 14-573
T3 sequence (P11309 whole entry): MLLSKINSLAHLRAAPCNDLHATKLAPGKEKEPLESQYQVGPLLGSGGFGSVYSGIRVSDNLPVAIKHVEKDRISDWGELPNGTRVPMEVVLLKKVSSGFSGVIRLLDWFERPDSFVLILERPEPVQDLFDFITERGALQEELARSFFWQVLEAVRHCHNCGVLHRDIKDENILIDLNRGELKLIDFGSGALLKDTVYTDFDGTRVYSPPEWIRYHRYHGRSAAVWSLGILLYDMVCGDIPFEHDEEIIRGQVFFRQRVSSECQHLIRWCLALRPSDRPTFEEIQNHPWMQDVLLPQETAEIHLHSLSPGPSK
Procedure: Protein PIM-1 (Upstate #14-573 batch 25864U) is incubated at a concentration of 0.625 μg/ml in a buffer containing 8 mM of MOPS/NaOH pH7, 0.2 mM EDTA, 5 mM MgAc (Sigma #229768), 0.01% Triton Tx100, in the presence of 70 μM of peptide substrate S6 Kinase/Rsk2 (Upstate #12-243), and 10 μM of ATP.
The dilution buffer for PIM-1 is as follows: 20 mM MOPS/NaOH pH7, 1 mM EDTA, 5% glycerol, 0.01% Brij35, 0.1% 2-mercapto, 1 mg/ml BSA
as §1
as §2, with “forty minutes” for “two hours”

[5] = biological target: T4, TrkA (Homo sapiens, UniProt P04629); assay: Inhibition of kinase TrkA (Kinase-Glo); details: TrkA 4 μg/ml, 30 μM ATP, two hours at 30° C.
T4 construct: purchased Upstate 14-571
T4 sequence (P04629 33-796): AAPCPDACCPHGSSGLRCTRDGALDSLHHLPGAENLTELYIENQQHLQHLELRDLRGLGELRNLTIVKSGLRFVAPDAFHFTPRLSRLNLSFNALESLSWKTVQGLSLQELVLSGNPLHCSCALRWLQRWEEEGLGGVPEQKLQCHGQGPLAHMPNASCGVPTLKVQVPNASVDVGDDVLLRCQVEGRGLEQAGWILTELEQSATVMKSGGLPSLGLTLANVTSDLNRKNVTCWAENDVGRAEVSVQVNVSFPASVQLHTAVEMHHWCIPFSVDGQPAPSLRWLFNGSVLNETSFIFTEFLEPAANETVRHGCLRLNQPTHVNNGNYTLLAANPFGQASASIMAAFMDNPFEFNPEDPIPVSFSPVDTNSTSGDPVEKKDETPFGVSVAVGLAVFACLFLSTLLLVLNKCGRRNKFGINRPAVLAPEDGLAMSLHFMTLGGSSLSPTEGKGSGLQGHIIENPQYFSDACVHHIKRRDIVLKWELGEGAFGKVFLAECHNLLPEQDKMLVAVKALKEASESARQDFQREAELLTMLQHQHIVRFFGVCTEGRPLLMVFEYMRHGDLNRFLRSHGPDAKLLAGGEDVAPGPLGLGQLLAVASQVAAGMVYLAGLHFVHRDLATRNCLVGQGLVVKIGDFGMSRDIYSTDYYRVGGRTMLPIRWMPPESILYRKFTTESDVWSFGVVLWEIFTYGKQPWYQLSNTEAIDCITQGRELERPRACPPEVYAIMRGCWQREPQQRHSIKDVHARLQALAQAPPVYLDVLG
Procedure: Protein TrkA (Upstate 14-571; batch #25634U) is incubated at a concentration of 4 μg/ml in a buffer containing 8 mM of MOPS/NaOH pH7, 0.2 mM EDTA, 40 mM MgAc (Sigma #229768), 1 mM DTT (Fluka #43816), NaOV 1 mM, 0.01% Triton Tx100, in the presence of 1 mg/ml of peptide substrate poly-EY (Upstate #P0275), and 30 μM of ATP.
The dilution buffer for TrkA is as follows: 20 mM MOPS/NaOH pH7, 1 mM EDTA, 5% glycerol, 0.01% Brij35, 0.1% 2-mercapto, 1 mg/ml BSA.
as §1, §2

| Structure (SMILES) | pIC50 [2] | pIC50 [3] | pIC50 [4] | pIC50 [5] | pIC50 [1] |
| --- | --- | --- | --- | --- | --- |
| CCOC(=O)c1c[nH]c2c(=O)[nH]c3ccc(S(=O)(=O)NC4CN5CCC4CC5)cc3c12 (centres unmarked) [Compound 94, 8-(1-Azabicyclo[2.2.2]oct-3-ylsulfamoyl)-4-oxo-4,5-dihydro-3H-pyrrolo[2,3-c]quinoline-1-ethyl carboxylate] | 6.00 to 7.00 | – | – | – | 6.00 to 7.00 |
| O=C(OCC1CCCCC1)c1c[nH]c2c(=O)[nH]c3ccc(S(=O)(=O)NC4CCNCC4)cc3c12 [Compound 117] | 6.00 to 7.00 | 4.00 to 5.00 | 5.00 to 6.00 | 4.00 to 5.00 | – |
| CCCOC(=O)c1c[nH]c2c(=O)[nH]c3ccc(S(=O)(=O)N(CC(C)(C)NC)C4CC4)cc3c12 [Compound 141, 8-[Cyclopropyl-(2-methyl-2-methylamino-propyl)-sulfamoyl]-4-oxo-4,5-dihydro-3H-pyrrolo[2,3-c]quinoline-1-propyl carboxylate hydrochloride] | 6.00 to 7.00 | – | – | – | 6.00 to 7.00 |
| CCCOC(=O)c1c[nH]c2c(=O)[nH]c3ccc(S(=O)(=O)N(C[C@@H]4CCCN4)C4CC4)cc3c12 [Compound 144, (S)-8-(Cyclopropyl-pyrrolidin-2-ylmethyl-sulfamoyl)-4-oxo-4,5-dihydro-3H-pyrrolo[2,3-c]quinoline-1-propyl carboxylate hydrochloride] | > 7.00 | – | – | – | 6.00 to 7.00 |
| CCCOC(=O)c1c[nH]c2c(=O)[nH]c3ccc(S(=O)(=O)N(C[C@@H]4CCCN4)C(C)C)cc3c12 [Compound 149, (S)-8-(Isopropyl-pyrrolidin-2-ylmethyl-sulfamoyl)-4-oxo-4,5-dihydro-3H-pyrrolo[2,3-c]quinoline-1-propyl carboxylate hydrochloride] | > 7.00 | – | – | – | 6.00 to 7.00 |
| C#CCN(C[C@@H]1CCCN1)S(=O)(=O)c1ccc2[nH]c(=O)c3[nH]cc(C(=O)OCCC)c3c2c1 [Compound 150, (S)-4-Oxo-8-(prop-2-ynyl-pyrrolidin-2-ylmethyl-sulfamoyl)-4,5-dihydro-3H-pyrrolo[2,3-c]quinoline-1-propyl carboxylate hydrochloride] | > 7.00 | – | – | – | 6.00 to 7.00 |
| CCCOC(=O)c1c[nH]c2c(=O)[nH]c3ccc(S(=O)(=O)N(C[C@H](C)N)C4CC4)cc3c12 [Compound 153, (S)-8-[(2-Amino-propyl)-cyclopropyl-sulfamoyl]-4-oxo-4,5-dihydro-3H-pyrrolo[2,3-c]quinoline-1-propyl carboxylate hydrochloride] | > 7.00 | – | – | – | 6.00 to 7.00 |
| CCCOC(=O)c1c[nH]c2c(=O)[nH]c3ccc(S(=O)(=O)N(C[C@@H](C)N)C4CC4)cc3c12 [Compound 155, (R)-8-[(2-Amino-propyl)-cyclopropyl-sulfamoyl]-4-oxo-4,5-dihydro-3H-pyrrolo[2,3-c]quinoline-1-propyl carboxylate hydrochloride] | > 7.00 | – | – | – | 6.00 to 7.00 |
| CCOC(=O)c1c[nH]c2c(=O)[nH]c3ccc(-c4cccc(CO)c4)cc3c12 [Compound 240, 8-(3-Hydroxymethyl-phenyl)-4-oxo-4,5-dihydro-3H-pyrrolo[2,3-c]quinoline-1-ethyl carboxylate] | 6.00 to 7.00 | 5.00 to 6.00 | 5.00 to 6.00 | 5.00 to 6.00 | – |
| CCNc1nccc(-c2ccc3[nH]c(=O)c4[nH]cc(C(=O)OCC)c4c3c2)n1 [Compound 264, 8-(2-Ethylamino-pyrimidin-4-yl)-4-oxo-4,5-dihydro-3H-pyrrolo[2,3-c]quinoline-1-ethyl carboxylate] | 6.00 to 7.00 | 4.00 to 5.00 | 5.00 to 6.00 | 4.00 to 5.00 | – |
| CCOC(=O)c1c[nH]c2c(=O)[nH]c3ccc(-c4cc[nH]n4)cc3c12 [Compound 282, 4-Oxo-8-(1H-pyrazol-3-yl)-4,5-dihydro-3H-pyrrolo[2,3-c]quinoline-1-ethyl carboxylate] | 6.00 to 7.00 | 4.00 to 5.00 | 4.00 to 5.00 | 4.00 to 5.00 | – |

Now from value to compound, other results behind:

| pIC50 [2] | pIC50 [3] | pIC50 [4] | pIC50 [5] | Structure (SMILES) | pIC50 [1] |
| --- | --- | --- | --- | --- | --- |
| > 7.00 | 4.00 to 5.00 | 5.00 to 6.00 | 4.00 to 5.00 | CCCCOC(=O)c1c[nH]c2c(=O)[nH]c3ccc(S(=O)(=O)NC4CCNCC4)cc3c12 [Compound 115, 4-Oxo-8-(piperidin-4-ylsulfamoyl)-4,5-dihydro-3H-pyrrolo[2,3-c]quinoline-1-carboxylate of butyl] | – |
| > 7.00 | 4.00 to 5.00 | 4.00 to 5.00 | 5.00 to 6.00 | CCCOC(=O)c1c[nH]c2c(=O)[nH]c3ccc(S(=O)(=O)N(C)C4CCNCC4)cc3c12 [Compound 120, 8-(Methyl-piperidin-4-yl-sulfamoyl)-4-oxo-4,5-dihydro-3H-pyrrolo[2,3-c]quinoline-1-propyl carboxylate] | – |
| 6.00 to 7.00 | – | – | – | CCOC(=O)c1c[nH]c2c(=O)[nH]c3ccc(S(=O)(=O)NC4CC4)cc3c12 [Compound 123, 8-Cyclopropylsulfamoyl-4-oxo-4,5-dihydro-3H-pyrrolo[2,3-c]quinoline-1-ethyl carboxylate] | 5.00 to 6.00 |
| > 7.00 | 5.00 to 6.00 | 4.00 to 5.00 | 5.00 to 6.00 | CCOC(=O)c1c[nH]c2c(=O)[nH]c3ccc(S(=O)(=O)N(CCC#N)C4CC4)cc3c12 [Compound 127, 8-[(2-Cyano-ethyl)-cyclopropyl-sulfamoyl]-4-oxo-4,5-dihydro-3H-pyrrolo[2,3-c]quinoline-1-ethyl carboxylate] | – |
| 6.00 to 7.00 | – | – | – | CCCOC(=O)c1c[nH]c2c(=O)[nH]c3ccc(S(=O)(=O)N(C)C4CN(C(c5ccccc5)c5ccccc5)C4)cc3c12 [Compound 130, 8-[(1-Benzhydryl-azetidin-3-yl)-methyl-sulfamoyl]-4-oxo-4,5-dihydro-3H-pyrrolo[2,3-c]quinoline-1-propyl carboxylate] | 6.00 to 7.00 |
| 6.00 to 7.00 | – | – | – | CCCOC(=O)c1c[nH]c2c(=O)[nH]c3ccc(S(=O)(=O)N(C[C@@H]4CCCN4C)C4CC4)cc3c12 [Compound 145, (S)-8-[Cyclopropyl-(1-methyl-pyrrolidin-2-ylmethyl)sulfamoyl]-4-oxo-4,5-dihydro-3H-pyrrolo[2,3-c]quinoline-1-propyl carboxylate] | 5.00 to 6.00 |
| 6.00 to 7.00 | – | – | – | CCCOC(=O)c1c[nH]c2c(=O)[nH]c3ccc(S(=O)(=O)N(C)CC(N)=O)cc3c12 [Compound 177, 8-(Carbamoylmethyl-methyl-sulfamoyl)-4-oxo-4,5-dihydro-3H-pyrrolo[2,3-c]quinoline-1-propyl carboxylate] | 6.00 to 7.00 |
| 5.00 to 6.00 | 5.00 to 6.00 | 5.00 to 6.00 | 5.00 to 6.00 | CCOC(=O)c1c[nH]c2c(=O)[nH]c3ccc(S(=O)(=O)O)cc3c12 [Compound 227, 4-Oxo-8-sulfo-4,5-dihydro-3H-pyrrolo[2,3-c]quinoline-1-ethyl carboxylate] | – |
| 6.00 to 7.00 | 6.00 to 7.00 | 5.00 to 6.00 | 5.00 to 6.00 | CCOC(=O)c1c[nH]c2c(=O)[nH]c3ccc(-c4cccc(O)c4)cc3c12 [Compound 237, 8-(3-Hydroxy-phenyl)-4-oxo-4,5-dihydro-3H-pyrrolo[2,3-c]quinoline-1-ethyl carboxylate] | – |
| 6.00 to 7.00 | 4.00 to 5.00 | 5.00 to 6.00 | 4.00 to 5.00 | CCOC(=O)c1c[nH]c2c(=O)[nH]c3ccc(-c4cccc(CN(C)C)c4)cc3c12 [Compound 242, 8-(3-Dimethylaminomethyl-phenyl)-4-oxo-4,5-dihydro-3H-pyrrolo[2,3-c]quinoline-1-ethyl carboxylate] | – |
